Experimental data from paper PMC6220303 (EMBO Molecular Medicine, 2018).
Several values for one entry are separate records, joined by “and”; a condition that tells them apart may be missing. Identical values can stand only once. Like-named read-outs stand apart in the source and are kept apart here.

Experiments:
[1] = system: healthy participants ≥ 60 years; assay: Adverse events after once-daily dosing over two weeks (Appendix Table S7); assay type: in vivo, human
Excerpt: (§1) For further details, see the Appendix Table S10 in Appendix and the accompanying clinical protocols synopsis (Appendix Table S11).
(§2) Appendix Table S3. Overview of completed clinical studies with CNP520
(§3) Study description Population No. of Participants Dose/Frequency […]
(§4) First-in-human, randomized, 18-55 yrs 38 / 14 Single dose (10, 30, 90, […]
(§5) controlled, single and multiple CNP520 vs placebo) ascending oral dose study to Single dose (10, 90, 300,

[2] = clinical; assay type: in vivo, human; conditions: for CSF Cmax: ≥ 60 years
Experimental: The lower limit of quantification (LLOQ) was 1 ng/ml in plasma and 2 ng/ml in urine and CSF, except for the 3‐month study where the method for CSF was more sensitive (LLOQ 0.1 ng/ml). Plasma PK parameters were calculated using actual recorded sampling times and non‐compartmental methods with Phoenix WinNonlin version 6.4 (Certara, Inc., Princeton, NJ, USA). […]

[3] = system: healthy participants; assay: Safety and tolerability in early clinical studies; assay type: in vivo, human; conditions: for dose up to which no dose-limiting safety or tolerability findings were observed: participants ≥ 60 years
Experimental: Only the single ascending dose studies were performed in adults 18–55 or 20–45 years of age, whereas the participants in all subsequent single and multiple dose studies were cognitively normal male and post‐menopausal female subjects ≥ 60 years of age, similar to the age range of our target population in the Generation Program.
as §1

[4] = system: CSF Aβ40 and sAPPβ; assay: Human CSF APP metabolites after single dose (serial CSF sampling); assay type: in vivo
Excerpt: We investigated CSF Aβ and sAPPβ levels in humans by serial CSF sampling via an intrathecal catheter. […] Under these conditions, where Aβ production has completely stopped, the curves most likely reflect the rate of physiological clearance of Aβ40 and sAPPβ from human CSF.
(A) Changes in Aβ40 relative to baseline values. (B) Changes in sAPPβ relative to baseline values.
Human CSF was collected from an indwelling spinal catheter inserted into the lower spinal canal (in the single ascending dose (SAD) PD first in human (FIH) study) or by a lumbar puncture (in the multiple ascending dose (MAD) PD Phase I study and Phase IIa study), and by trained personnel at the site and as per their standard operating procedure (SOP). CSF Aβ38, Aβ40, Aβ42, sAPPα, and sAPPβ were quantified in human CSF with 0.2% (v/v) Tween®‐20 using validated sandwich‐based multiplexed electrochemiluminescence methods (MesoScale Discovery, […], MD, USA).

[5] = system: dogs; assay: Long-term toxicology studies in dogs; assay type: in vivo, dog
Experimental: In long‐term toxicology studies, dose‐limiting non‐specific central nervous system (CNS) effects (including impaired mobility and tremor) occurred in dogs at ≥ 30 mg/kg/day and in male rats (adverse effects only observed at doses ≥ 500 mg/kg/day). […] After CNP520 withdrawal, all changes either trended toward being, or were, fully reversible. The organs that were affected by drug toxicity in these animal studies either were not relevant to the clinical target population or the toxicities occurred at a dose substantially higher than the efficacious clinical dose.
In vivo animal toxicity studies were performed according to ICH guidance for industry M3(R2) and conformed to the Institutional Animal Care and Use Guidelines for the contract laboratory and sponsor. […] Recovery was assessed after a 12‐week treatment‐free period. Beagle dogs from Marshall BKU UK, 11 months of age, were given 0 (vehicle), 5, 15, or 30 mg/kg/day for 39 weeks. Vehicle consisted of 0.5% (w/v) methylcellulose (1,500 cPS) in 0.1% (v/v) polysorbate 80 (Tween®‐80) in reverse osmosis water. At necropsy, tissues were immersion fixed in 10% neutral‐buffered formalin or modified Davidson's solution and then processed by routine methods to paraffin block and hematoxylin–eosin (H&E)‐stained histologic slides.

[6] = system: healthy participants ≥ 60 years; assay: Adverse events after single dose (Appendix Table S5); assay type: in vivo, human
Excerpt: as §1, §2, §3, §4, §5

[7] = after a 750 mg CNP520 dose, n=6

Q: Which results are given for `C[C@@]1(c2nc(NC(=O)c3ncc(C(F)(F)F)cc3Cl)ccc2F)CO[C@@](C)(C(F)(F)F)C(N)=N1` [CNP520]?
A: AE incidence: Respiratory, thoracic and mediastinal disorders ([1]; 10 mg once daily, N = 9): 1 (11.1) n (%); Participants with any AE(s) ([1]; 10 mg once daily, N = 9): 6 (66.7) n (%); AE incidence: Renal and urinary disorders ([1]; 30 mg once daily, N = 9): 0 (0.0) n (%); AE incidence: Ear and labyrinth disorders ([1]; 300 mg once daily, N = 8): 0 (0.0) n (%); CSF conc 24h after dose Day 14 ([2]; 10 mg q.d., 2 weeks, LLOQ 2 ng/ml in CSF): < LLOQ; concentration at 24 h ([2]; both sexes, human, CSF, oral, 2 mg q.d., 3 month study, mean (CV %), read-out: CSF conc 24h after dose Day 91): 0.305 ng/mL; concentration at 24 h ([2]; both sexes, human, CSF, oral, 10 mg q.d., 3 month study, mean (CV %), read-out: CSF conc 24h after dose Day 91): 1.44 ng/mL; concentration at 24 h ([2]; both sexes, human, CSF, oral, 30 mg q.d., 2 weeks, mean (CV %), read-out: CSF conc 24h after dose Day 14): 3.33 ng/mL; concentration at 24 h ([2]; both sexes, human, CSF, oral, 35 mg q.d., 3 month study, mean (CV %), read-out: CSF conc 24h after dose Day 91): 4.52 ng/mL; concentration at 24 h ([2]; both sexes, human, CSF, oral, 85 mg q.d., 3 month study, mean (CV %), read-out: CSF conc 24h after dose Day 91): 10.4 ng/mL; concentration at 24 h ([2]; both sexes, human, CSF, oral, 90 mg q.d., 2 weeks, mean (CV %), read-out: CSF conc 24h after dose Day 14): 9.48 ng/mL; concentration at 24 h ([2]; both sexes, human, CSF, oral, 300 mg q.d., 2 weeks, mean (CV %), read-out: CSF conc 24h after dose Day 14): 29.8 ng/mL; Cmax ([2]; both sexes, human, CSF, oral, single dose of 750 mg, read-out: CSF mean C max): 39.7 nM; CSF Cmax ([2]; single dose 10 mg, LLOQ 2 ng/ml in CSF): < LLOQ; CSF Cmax ([2]; single dose 90 mg, mean (CV %)): 3.33 ( 65.2 ) ng/ml; CSF Cmax ([2]; single dose 300 mg, mean (CV %)): 10.5 (49.1) ng/ml; CSF Cmax ([2]; single dose 750 mg, mean (CV %)): 20.4 (44.8) ng/ml and 20.4 ng/ml; skin-related AEs, mostly driven by pruritus ([3]; 3-month study, 4% for placebo): 18%; abuse potential ([3]; clinical studies): no signal for abuse potential; dose up to which no dose-limiting safety or tolerability findings were observed ([3]; for 2 weeks (maximum multiple dose tested)): ≤ 300 mg; dose up to which no dose-limiting safety or tolerability findings were observed ([3]; for 3 months): up to 85 mg; dose up to which no dose-limiting safety or tolerability findings were observed ([3]; single dose): up to 750 mg; maximum reduction in CSF Aβ40 from baseline ([4]; 750-mg single dose, mean ± SD): 79.1 ± 8.9%; first-order rate constant k, Aβ40 in human CSF [4, 7]: 0.068 ± 0.002 h⁻¹; first-order rate constant k, sAPPβ in human CSF [4, 7]: 0.043 ± 0.004 h⁻¹; No Adverse Effect Level ([5]; dog, authors' response in review file): 30 mg/kg/day; dose with dose-limiting non-specific CNS effects (impaired mobility, tremor) ([5]; dogs, long-term toxicology): ≥ 30 mg/kg/day; AE incidence: Ear and labyrinth disorders ([6]; single dose 10 mg, N = 6): 0 (0.0) n (%); AE incidence: Eye disorders ([6]; single dose 10 mg, N = 6): 0 (0.0) n (%); AE incidence: Gastrointestinal disorders ([6]; single dose 10 mg, N = 6): 1 (16.7) n (%); AE incidence: General disorders and administration site conditions ([6]; single dose 10 mg, N = 6): 1 (16.7) n (%); AE incidence: Infections and infestations ([6]; single dose 10 mg, N = 6): 0 (0.0) n (%); AE incidence: Injury, poisoning and procedural complications ([6]; single dose 10 mg, N = 6): 0 (0.0) n (%); AE incidence: Metabolism and nutrition disorders ([6]; single dose 10 mg, N = 6): 1 (16.7) n (%); AE incidence: Nervous system disorders ([6]; single dose 10 mg, N = 6): 2 (33.3) n (%); AE incidence: Psychiatric disorders ([6]; single dose 10 mg, N = 6): 0 (0.0) n (%); AE incidence: Respiratory, thoracic and mediastinal disorders ([6]; single dose 10 mg, N = 6): 0 (0.0) n (%); AE incidence: Vascular disorders ([6]; single dose 10 mg, N = 6): 0 (0.0) n (%); Participants with at least one AE ([6]; single dose 10 mg, N = 6): 5 (83.3) n (%); AE incidence: Ear and labyrinth disorders ([6]; single dose 90 mg, N = 6): 0 (0.0) n (%); AE incidence: Eye disorders ([6]; single dose 90 mg, N = 6): 1 (16.7) n (%); AE incidence: Gastrointestinal disorders ([6]; single dose 90 mg, N = 6): 0 (0.0) n (%); AE incidence: General disorders and administration site conditions ([6]; single dose 90 mg, N = 6): 0 (0.0) n (%); AE incidence: Infections and infestations ([6]; single dose 90 mg, N = 6): 0 (0.0) n (%); AE incidence: Injury, poisoning and procedural complications ([6]; single dose 90 mg, N = 6): 0 (0.0) n (%); AE incidence: Metabolism and nutrition disorders ([6]; single dose 90 mg, N = 6): 0 (0.0) n (%); AE incidence: Nervous system disorders ([6]; single dose 90 mg, N = 6): 1 (16.7) n (%); AE incidence: Psychiatric disorders ([6]; single dose 90 mg, N = 6): 1 (16.7) n (%); AE incidence: Respiratory, thoracic and mediastinal disorders ([6]; single dose 90 mg, N = 6): 0 (0.0) n (%); AE incidence: Vascular disorders ([6]; single dose 90 mg, N = 6): 1 (16.7) n (%); Participants with at least one AE ([6]; single dose 90 mg, N = 6): 3 (50.0) n (%); AE incidence: Ear and labyrinth disorders ([6]; single dose 300 mg, N = 8): 1 (12.5) n (%); AE incidence: Eye disorders ([6]; single dose 300 mg, N = 8): 0 (0.0) n (%); AE incidence: Gastrointestinal disorders ([6]; single dose 300 mg, N = 8): 0 (0.0) n (%); AE incidence: General disorders and administration site conditions ([6]; single dose 300 mg, N = 8): 0 (0.0) n (%); AE incidence: Infections and infestations ([6]; single dose 300 mg, N = 8): 0 (0.0) n (%); AE incidence: Injury, poisoning and procedural complications ([6]; single dose 300 mg, N = 8): 0 (0.0) n (%); AE incidence: Metabolism and nutrition disorders ([6]; single dose 300 mg, N = 8): 0 (0.0) n (%); AE incidence: Nervous system disorders ([6]; single dose 300 mg, N = 8): 2 (25.0) n (%); AE incidence: Psychiatric disorders ([6]; single dose 300 mg, N = 8): 0 (0.0) n (%); AE incidence: Respiratory, thoracic and mediastinal disorders ([6]; single dose 300 mg, N = 8): 0 (0.0) n (%); AE incidence: Vascular disorders ([6]; single dose 300 mg, N = 8): 0 (0.0) n (%); Participants with at least one AE ([6]; single dose 300 mg, N = 8): 6 (75.0) n (%); AE incidence: Ear and labyrinth disorders ([6]; single dose 750 mg, N = 9): 0 (0.0) n (%); AE incidence: Eye disorders ([6]; single dose 750 mg, N = 9): 0 (0.0) n (%); AE incidence: Gastrointestinal disorders ([6]; single dose 750 mg, N = 9): 2 (22.2) n (%); AE incidence: General disorders and administration site conditions ([6]; single dose 750 mg, N = 9): 1 (11.1) n (%); AE incidence: Infections and infestations ([6]; single dose 750 mg, N = 9): 0 (0.0) n (%); AE incidence: Injury, poisoning and procedural complications ([6]; single dose 750 mg, N = 9): 3 (33.3) n (%); AE incidence: Metabolism and nutrition disorders ([6]; single dose 750 mg, N = 9): 0 (0.0) n (%); AE incidence: Nervous system disorders ([6]; single dose 750 mg, N = 9): 3 (33.3) n (%); AE incidence: Psychiatric disorders ([6]; single dose 750 mg, N = 9): 0 (0.0) n (%); AE incidence: Respiratory, thoracic and mediastinal disorders ([6]; single dose 750 mg, N = 9): 0 (0.0) n (%); AE incidence: Vascular disorders ([6]; single dose 750 mg, N = 9): 0 (0.0) n (%); Participants with at least one AE ([6]; single dose 750 mg, N = 9): 8 (88.9) n (%)
